Experimental data: patent US6759547B1, “5,6,7,8-tetrahydronaphthalen-2-yl 2,6-difluoroheptatrienoic acid derivatives having serum glucose reducing activity” (Allergan, Inc., priority 2003, dated 2004)
pEC50, pKi: −log10 of the molar value.

What was measured:
RARα = molecular target: T1, RARα (Homo sapiens, UniProt P10276); assay: chimeric receptor transactivation assay, RARα; assay type: cell-based
T1 sequence (P10276 183-417 limits assumed): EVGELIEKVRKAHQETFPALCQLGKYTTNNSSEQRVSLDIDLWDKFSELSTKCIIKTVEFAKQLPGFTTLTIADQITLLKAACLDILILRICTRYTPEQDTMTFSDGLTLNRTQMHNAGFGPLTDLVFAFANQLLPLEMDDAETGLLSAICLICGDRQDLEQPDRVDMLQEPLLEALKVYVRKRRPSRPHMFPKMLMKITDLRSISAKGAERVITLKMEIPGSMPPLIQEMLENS
Description: (§1) One such assay is a chimeric receptor transactivation assay which tests for agonist-like activity in the RARα RARβ and RARγ receptor subtypes, and which is based on work published by Feigner P. L. and Holm M. (1989) Focus, 112 is described in detail in U.S. Pat. No. 5,455,265. The specification of U.S. Pat. No. 5,455,265 is hereby expressly incorporated by reference.
(§2) Table 1 discloses the activity of certain exemplary compounds of the invention in the above-described receptor transactivation and binding assays. Particularly, the transactivation data pertaining to activation of the RAR receptors were obtained in the chimeric assay, and the transactivation data pertaining to the activation of RXR receptors were obtained in the holoreceptor assay.

RARγ [1] = molecular target: T2, RARγ (Homo sapiens, UniProt P13631); assay: chimeric receptor transactivation assay, RARγ; assay type: cell-based
T2 sequence (P13631 185-419 limits assumed): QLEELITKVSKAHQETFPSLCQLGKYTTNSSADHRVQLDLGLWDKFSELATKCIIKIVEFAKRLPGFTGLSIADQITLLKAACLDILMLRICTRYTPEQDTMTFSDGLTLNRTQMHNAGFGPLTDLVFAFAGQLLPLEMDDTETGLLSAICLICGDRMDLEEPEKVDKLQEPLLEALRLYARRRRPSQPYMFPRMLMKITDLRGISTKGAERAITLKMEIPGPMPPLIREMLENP
Description: as §1, §2

RARγ [2] = molecular target: T3, RARγ (Homo sapiens, UniProt P13631); assay: ligand binding assay, RARγ; settings: read-out: RAR Bind. K1 γ
T3 sequence (P13631 1-454): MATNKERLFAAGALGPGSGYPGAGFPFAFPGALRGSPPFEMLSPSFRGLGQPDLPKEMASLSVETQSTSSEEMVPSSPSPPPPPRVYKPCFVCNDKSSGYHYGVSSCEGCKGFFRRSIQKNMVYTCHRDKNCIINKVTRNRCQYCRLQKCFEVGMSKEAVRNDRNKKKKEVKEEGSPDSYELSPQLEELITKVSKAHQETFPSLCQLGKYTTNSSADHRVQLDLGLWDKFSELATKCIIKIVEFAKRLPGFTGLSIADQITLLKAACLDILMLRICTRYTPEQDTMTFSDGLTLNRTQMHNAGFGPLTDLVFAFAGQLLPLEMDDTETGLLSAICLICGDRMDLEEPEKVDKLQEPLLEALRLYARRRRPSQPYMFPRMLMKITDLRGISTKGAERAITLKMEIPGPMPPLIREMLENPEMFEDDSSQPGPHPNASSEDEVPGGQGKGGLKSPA
Description: The results obtained in this assay are expressed in EC50 numbers, as they are also in the chimeric receptor transactivation assay. The results of the ligand binding assay are expressed in Ki numbers.

RXRγ = molecular target: T4, RXRγ (Homo sapiens, UniProt P48443); assay: holoreceptor transactivation assay, RXRγ; assay type: cell-based; settings: for RXR Trans. efficacy γ: efficacy as a percentage compared to the standard compound; for pEC50: holoreceptor assay, read-out: RXR Trans. EC50 γ
T4 construct: expressed in transfected cells
T4 sequence (P48443 1-463): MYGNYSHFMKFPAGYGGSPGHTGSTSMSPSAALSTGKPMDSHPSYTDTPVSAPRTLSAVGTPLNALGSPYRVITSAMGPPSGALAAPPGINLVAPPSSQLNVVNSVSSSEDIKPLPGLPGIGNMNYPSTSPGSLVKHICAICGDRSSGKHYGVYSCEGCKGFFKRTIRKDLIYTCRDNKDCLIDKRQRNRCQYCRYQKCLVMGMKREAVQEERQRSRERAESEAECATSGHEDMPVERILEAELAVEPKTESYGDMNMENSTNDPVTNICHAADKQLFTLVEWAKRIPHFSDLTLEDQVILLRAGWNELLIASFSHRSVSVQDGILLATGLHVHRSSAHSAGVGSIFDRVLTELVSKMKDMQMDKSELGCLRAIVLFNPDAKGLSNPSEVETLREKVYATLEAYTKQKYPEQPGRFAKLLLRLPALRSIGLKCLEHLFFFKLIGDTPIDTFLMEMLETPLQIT
Description: Particularly, the transactivation data pertaining to activation of the RAR receptors were obtained in the chimeric assay, and the transactivation data pertaining to the activation of RXR receptors were obtained in the holoreceptor assay.

[3] = tested on: female diabetic db/db mice; assay: serum glucose, triglyceride and thyroxine levels in db/db mice; assay type: in vivo; settings: female db/db mice, Compound 27 50 mg/kg
Protocol: An assay described below tests the effect of compounds of the invention on serum glucose, tryglyceride and thyroxine levels in female 9-10 weeks old db/db mice.
Blood samples (70 μl) were taken by orbital bleeding at 11:00 AM on day 0 (pre-treatment), day 3, and day 6. On day 7, a blood sample (700 μl) was taken at 11:00 AM and the animals were sacrificed. Glucose, triglyceride and thyroxine (T4) levels were determined on a Boehringer Manheim Hatachi Clinical Chemistry Analyzer using standard protocols provided by the manufacturer and reagents that were supplied in commercially available kits (glucose and T4; Boehringer Manheim; triglycerides: Roche Diagnostics). Seven animals were treated in each group.

[4] = efficacy as a percentage compared to the standard compound
[5] = day 0 (pre-treatment), groups: standard compound 5 mg/kg
[6] = oral gavage daily, standard compound 5 mg/kg

SMILES | pEC50 (RARα; chimeric assay, read-out: RAR Trans. EC50 α) | RAR Trans. efficacy α (RARα; [4]) [%] | pEC50 (RARγ [1]; chimeric assay, read-out: RAR Trans. EC50 γ) | RAR Trans. efficacy γ (RARγ [1]; [4]) [%] | pKi (RARγ [2]) | RXR Trans. efficacy γ (RXRγ) [%] | pEC50 (RXRγ) | Glucose Day 0 [3, 5] [mg/dL] | Triglycerides Day 0 [3, 5] [mg/dL] | T4 Day 7 ([3]; oral gavage daily for seven days, standard compound 5 mg/kg) [µg/dL] | Glucose Day 3, 3 h [3, 6] [mg/dL] | Glucose Day 6, 3 h [3, 6] [mg/dL] | Triglycerides Day 3, 3 h [3, 6] [mg/dL]
CCCOc1cc2c(cc1\C(C)=C(F)/C=C/C(C)=C(\F)C(=O)O)C(C)(C)CCC2(C)C [Compound 11, (2Z,4E,6E)-2,6-Difluoro-3-methyl-7-(5,5,8,8-tetramethyl-3-propoxy-5,6,7,8-tetrahydro-naphthalen-2-yl)-octa-2,4,6-trienoic acid] | 8.30 | 12 | 6.74 | 28 | 6.60 | – | – | – | – | – | – | – | –
CC/C(=C(F)/C=C/C(C)=C(\F)C(=O)O)c1cc2c(cc1OCOC)C(C)(C)CCC2(C)C [Compound 21, (2Z,4E,6E)-2,6-Difluoro-7-(3-methoxymethoxy-5,5,8,8-tetramethyl-5,6,7,8-tetrahydro-naphthalen-2-yl)-3-methyl-nona-2,4,6-trienoic acid] | – | – | – | – | 6.03 | 36 | 8.10 | – | – | – | – | – | –
CCOc1cc2c(cc1\C(CC)=C(F)/C=C/C(C)=C(\F)C(=O)O)C(C)(C)CCC2(C)C [Compound 27, (2Z,4E,6E)-7-(3-Ethoxy-5,5,8,8-tetramethyl-5,6,7,8-tetrahydro-naphthalen-2-yl)-2,6-difluoro-3-methyl-nona-2,4,6-trienoic acid] | – | – | – | – | 5.19 | 23 | 8.52 | 384 | 152 | 3.9 ± 0.9 | 290 | 225 | 106
